This is an account of results in patent US20240261417A1, “SOS1 DEGRADING AGENT AND PREPARATION METHOD THEREFOR AND APPLICATION THEREOF” (SHANGHAI LEADINGTAC PHARMACEUTICAL CO. LTD., priority 2021, published 2024).

For the assay, the target named is T1, SOS1 protein (Homo sapiens, UniProt Q07889).
T1 sequence (Q07889 1-1333): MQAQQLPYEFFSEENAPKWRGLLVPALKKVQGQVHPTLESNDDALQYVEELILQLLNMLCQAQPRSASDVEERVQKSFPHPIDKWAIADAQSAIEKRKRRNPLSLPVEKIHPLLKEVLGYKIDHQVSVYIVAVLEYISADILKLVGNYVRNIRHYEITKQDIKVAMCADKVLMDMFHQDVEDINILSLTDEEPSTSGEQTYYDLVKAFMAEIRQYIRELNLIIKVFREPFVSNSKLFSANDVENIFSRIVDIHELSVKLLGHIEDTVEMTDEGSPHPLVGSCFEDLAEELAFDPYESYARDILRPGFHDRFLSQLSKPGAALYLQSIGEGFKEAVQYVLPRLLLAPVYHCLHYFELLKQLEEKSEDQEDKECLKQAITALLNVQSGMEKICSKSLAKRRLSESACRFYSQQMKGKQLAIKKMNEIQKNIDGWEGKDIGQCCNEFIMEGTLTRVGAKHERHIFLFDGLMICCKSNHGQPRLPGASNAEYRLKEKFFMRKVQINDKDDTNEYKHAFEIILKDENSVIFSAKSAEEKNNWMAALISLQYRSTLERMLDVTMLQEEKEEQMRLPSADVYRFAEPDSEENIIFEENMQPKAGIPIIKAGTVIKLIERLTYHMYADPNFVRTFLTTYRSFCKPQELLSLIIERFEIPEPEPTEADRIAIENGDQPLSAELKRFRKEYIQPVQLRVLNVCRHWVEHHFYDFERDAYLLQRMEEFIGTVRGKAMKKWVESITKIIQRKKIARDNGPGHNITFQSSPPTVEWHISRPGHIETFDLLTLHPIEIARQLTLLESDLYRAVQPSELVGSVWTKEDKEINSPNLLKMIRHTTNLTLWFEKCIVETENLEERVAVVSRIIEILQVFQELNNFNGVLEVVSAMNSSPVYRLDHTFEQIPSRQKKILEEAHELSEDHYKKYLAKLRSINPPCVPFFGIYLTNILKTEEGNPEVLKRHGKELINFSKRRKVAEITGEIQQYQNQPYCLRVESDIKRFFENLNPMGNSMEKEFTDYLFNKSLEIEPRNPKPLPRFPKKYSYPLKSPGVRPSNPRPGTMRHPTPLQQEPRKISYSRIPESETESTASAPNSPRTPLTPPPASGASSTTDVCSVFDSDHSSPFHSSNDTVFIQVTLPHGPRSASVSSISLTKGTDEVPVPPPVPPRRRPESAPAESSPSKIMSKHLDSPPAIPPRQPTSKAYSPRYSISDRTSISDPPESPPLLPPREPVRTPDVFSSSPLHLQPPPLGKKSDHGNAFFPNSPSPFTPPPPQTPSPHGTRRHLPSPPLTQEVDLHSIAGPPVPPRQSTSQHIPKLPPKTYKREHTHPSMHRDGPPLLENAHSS
As to the kind of experiment: SOS1 degradation assay (Western blot), NCI-H358 cells. It is filed as cell-based. Set-up: The degradation of SOS1 by the compounds was investigated on KRAS G12C mutant human non-small cell lung cancer cells NCI-H358; host or cells: NCI-H358 (human cancer cell lines). The following applies: SOS1 degradation, NCI-H358 cells, 24 h, Western blot; for DC50: read-out: NCI-H358 (G12C) DC50; for Dmax: read-out: NCI-H358 (G12C) Dmax. As to the method: The specific procedures were as follows:
0.95 mL of cells were seeded into each well of a 24-well cell culture plate to achieve a cell density of 5×10^5 cells/well; the cell plate was incubated in an incubator at 37° C. with 5% CO2 overnight. Then 50 μL of the compound solution after dilution was added to each of the wells with the corresponding cells, so that the final concentration of the compound was in a range of 0.03-3000 nM. […] After dosing, the cell plate was incubated in an incubator at 37° C. with 5% CO2 for 24 h. […] After the plate was left to stand on ice for 30 min, the protein lysate in each well was transferred to a 1.5 mL centrifuge tube and centrifuged at 15000 g for 20 min at 4° C. The cell lysate supernatant after centrifugation was cryopreserved at −80° C. for testing and was used for determining the degradation level of the SOS1 protein by a WB method. The concentration of total protein in the cell lysate supernatant was determined using the BCA Protein Quantification Kit (Tiangen, PA115-02).
The concentration of total protein in the cell lysate was determined by BCA. The total protein was adjusted to 0.5 μg/μL with PBS and 5× SDS-PAGE protein loading buffer (Beyotime, P0015L), incubated in a water bath at 100° C. for 15 min, incubated in an ice bath on ice for 5 min, centrifuged at 14000 g for 1 min at 4° C., and mixed well as a loading sample for WB. Protein electrophoresis was performed on a precast gel (KeyGEN, KGMGO10W15) with a loading volume of 10 μL (total protein: 5 μg) using a Tris-MOPS-SDS running solution (Adamas, P1598253) at a constant voltage of 120 V for 55 min. After the electrophoresis, the protein on the gel strip was transferred to a PVDF membrane at a constant current of 250 mA for 65 min. After the membrane transfer, the membrane was incubated in 1× QuickBlock blocking buffer (Beyotime, P0235) for 30 min at room temperature. […] The protein map was subjected to gray value analysis by the chemiluminescence imaging system from Clinx. […] Then the degradation rate was calculated by comparing the gray correction value with the gray correction value of the control group. Then nonlinear curve fitting was performed by GraphPad Prism 8 in the logarithmic concentration-inhibition rate to obtain the DC50 and Dmax values of the compounds.
(In western blotting, separated proteins are transferred to a membrane and probed.)

By DC50 is commonly meant the midpoint of the concentration-degradation curve. What is called Dmax is the largest share of the target that was removed. On to `COc1cc2nc(C)nc(N[C@H](C)c3cc(N)cc(C(F)(F)F)c3)c2cc1C1=CCC(C(=O)N2CCC(CCOCC3CCN(C(=O)c4ccc(OC)c(N5CCC(=O)NC5=O)c4)CC3)CC2)CC1` (stereo partly drawn) [Example 32, 1-(5-(4-((2-(1-(4-(4-(((R)-1-(3-amino-5-(trifluoromethyl)phenyl)ethyl)amino)-7-methoxy-2-methylquinazolin-6-yl)cyclohex-3-ene-1-carbonyl)piperidin-4-yl)ethoxy)methyl)piperidine-1-carbonyl)-2-methoxyphenyl)dihydropyrimidine-2,4(1H,3H)-dione], for which the half-maximal degradation concentration (DC50) was under 0.05 µM and the maximal degradation (Dmax) was in the range of 80 to 100%.
In the case of `COc1cc2nc(C)nc(N[C@H](C)c3cc(N)cc(C(F)(F)F)c3)c2cc1OC1CCN(CC2CCC3(CC2)CCN(C(=O)c2ccc(Cl)c(N4CCC(=O)NC4=O)c2)CC3)CC1` [Example 6, (R)-1-(5-(9-((4-((4-((1-(3-amino-5-(trifluoromethyl)phenyl)ethyl)amino)-7-methoxy-2-methylquinazolin-6-yl)oxy)piperidin-1-yl)methyl)-3-azaspiro[5.5]undecane-3-carbonyl)-2-chlorophenyl)dihydropyrimidine-2,4(1H,3H)-dione], the half-maximal degradation concentration (DC50) was in the range of 1 to 10 µM and the greatest degradation seen (Dmax) is 30 to 50%.
As to `COc1cc2nc(C)nc(N[C@H](C)c3cc(N)cc(C(F)(F)F)c3)c2cc1[C@H]1CC[C@H](C(=O)N2CCN(CC3CCC4(CC3)CCN(C(=O)c3ccc(F)c(N5CCC(=O)NC5=O)c3)CC4)CC2)CC1` [Example 24, 1-(5-(9-((4-((1R,4R)-4-(4-(((R)-1-(3-amino-5-(trifluoromethyl)phenyl)ethyl)amino)-7-methoxy-2-methylquinazolin-6-yl)cyclohexane-1-carbonyl)piperazin-1-yl)methyl)-3-azaspiro[5.5]undecane-3-carbonyl)-2-fluorophenyl)dihydropyrimidine-2,4(1H,3H)-dione], the DC50 is under 0.05 µM and the Dmax was in the range of 80 to 100%.
`COc1cc2nc(C)nc(N[C@H](C)c3cc(N)cc(C(F)(F)F)c3)c2cc1[C@H]1CC[C@H](C(=O)N2CCN(CC3CCC4(CC3)CCN(C(=O)c3cccc(N5CCC(=O)NC5=O)c3)CC4)CC2)CC1` [Example 21, 1-(3-(9-((4-((1R,4R)-4-(4-(((R)-1-(3-amino-5-(trifluoromethyl)phenyl)ethyl)amino)-7-methoxy-2-methylquinazolin-6-yl)cyclohexane-1-carbonyl)piperazin-1-yl)methyl)-3-azaspiro[5.5]undecane-3-carbonyl)phenyl)dihydropyrimidine-2,4(1H,3H)-dione]: the 50% degradation concentration (DC50) lay within 1 to 10 µM and the maximal degradation (Dmax) lay within 30 to 50%.
In the case of `COc1cc2nc(C)nc(N[C@H](C)c3cc(N)cc(C(F)(F)F)c3)c2cc1[C@H]1CC[C@H](C(=O)N2CCN(CCOC3CCN(C(=O)c4ccc(Cl)c(N5CCC(=O)NC5=O)c4)CC3)CC2)CC1` [Example 30, 1-(5-(4-(2-(4-((1R,4R)-4-(4-(((R)-1-(3-amino-5-(trifluoromethyl)phenyl)ethyl)amino)-7-methoxy-2-methylquinazolin-6-yl)cyclohexane-1-carbonyl)piperazin-1-yl)ethoxy)piperidine-1-carbonyl)-2-chlorophenyl)dihydropyrimidine-2,4(1H,3H)-dione], the 50% degradation concentration (DC50) lay in the range of 1 to 10 µM and the Dmax was under 30%.
With `COc1cc2nc(C)nc(N[C@H](C)c3cc(N)cc(C(F)(F)F)c3)c2cc1[C@H]1CC[C@H](C(=O)N2CCC(CCCC3CCN(C(=O)c4ccc(Cl)c(N5CCC(=O)NC5=O)c4)CC3)CC2)CC1` [Example 14, 1-(5-(4-(3-(1-((1R,4R)-4-(4-(((R)-1-(3-amino-5-(trifluoromethyl)phenyl)ethyl)amino)-7-methoxy-2-methylquinazolin-6-yl)cyclohexane-1-carbonyl)piperidin-4-yl)propyl)piperidine-1-carbonyl)-2-chlorophenyl)dihydropyrimidine-2,4(1H,3H)-dione], the DC50 was under 0.05 µM and the Dmax is 50 to 80%.
As to `COc1cc2nc(C)nc(N[C@H](C)c3cc(N)cc(C(F)(F)F)c3)c2cc1[C@H]1CC[C@H](C(=O)N(C)CCOCC#CC2CCN(C(=O)c3ccc(Cl)c(N4CCC(=O)NC4=O)c3)CC2)CC1` [Example 26, (1R,4R)-4-(4-(((R)-1-(3-amino-5-(trifluoromethyl)phenyl)ethyl)amino)-7-methoxy-2-methylquinazolin-6-yl)-N-(2-((3-(1-(4-chloro-3-(2,4-dioxotetrahydropyrimidin-1(2H)-yl)benzoyl)piperidin-4-yl)prop-2-yn-1-yl)oxo)ethyl)-N-methylcyclohexane-1-carboxamide], the “NCI-H358 (G12C) Dmax” value is “D (when Dmax (%)<30, the level was D)” and the DC50 was in the range of 1 to 10 µM.
`COc1cc2nc(C)nc(N[C@H](C)c3cc(N)cc(C(F)(F)F)c3)c2cc1[C@H]1CC[C@H](C(=O)N2CCC(CCN(C)CC3CCN(C(=O)c4ccc(Cl)c(N5CCC(=O)NC5=O)c4)CC3)CC2)CC1` [Example 25, 1-(5-(4-(((2-(1-((1R,4R)-4-(4-(((R)-1-(3-amino-5-(trifluoromethyl)phenyl)ethyl)amino)-7-methoxy-2-methylquinazolin-6-yl)cyclohexane-1-carbonyl)piperidin-4-yl)ethyl)(methyl)amino)methyl)piperidine-1-carbonyl)-2-chlorophenyl)dihydropyrimidine-2,4(1H,3H)-dione]: the DC50 lay in the range of 1 to 10 µM and the Dmax was under 30%.
On to `COc1ccc(C(=O)N2CCC(COCCC3CCN(C(=O)[C@H]4CC[C@H](c5cc6c(N[C@H](C)c7cc(N)cc(C(F)(F)F)c7)nc(C)nc6cn5)CC4)CC3)CC2)cc1N1CCC(=O)NC1=O` [Example 36, 1-(5-(4-((2-(1-((1R,4R)-4-(4-(((R)-1-(3-amino-5-(trifluoromethyl)phenyl)ethyl)amino)-2-methylpyrido[3,4-d]pyrimidin-6-yl)cyclohexane-1-carbonyl)piperidin-4-yl)ethoxy)methyl)piperidine-1-carbonyl)-2-methoxyphenyl)dihydropyrimidine-2,4(1H,3H)-dione], for which the DC50 lay within 0.1 to 0.5 µM and the Dmax lay in the range of 50 to 80%.
